In paper PMC9323733, “Efficacy of Vafidemstat in Experimental Autoimmune Encephalomyelitis Highlights the KDM1A/RCOR1/HDAC Epigenetic Axis in Multiple Sclerosis” (Pharmaceutics, 2022) one finds Lymphocytes data, which are given here for one compound.

The subject of this data set is lymphocytes. As to the kind of experiment: GLP toxicological studies, lymphocyte count, dogs. In kind it is in vivo, Beagle dogs. As to conditions: mean ± SD. The text has this: T r eat m e nt N Ly m p h o c y te s Equivalent m ou se d o se
( mg /k g p. o. ga va g e) (109/ L ) ( mg /k g p.o ga va ge)
6 m ont h s W i sta r r at s
9 m ont h s Be ag le d og s
Eff ec t of t r ea t me nt wi t h O RY-2 00 1 a d mi ni st e r e d by or al ga va ge o n l y m ph oc yt e s ob se r ve d i n G LP
t ox i c ol ogi c a l st udi e s i n r at a nd do g. A ni ma l s we r e t re a t e d or al l y (fi ve c o ns e c ut i ve da ys/ we e k) by ga va ge
28 da ys or 6 mo nt hs ( ra t s) a nd 28 da ys or 9 mo nt hs (dogs). Data re prese nt de me a n ± S D. T he e q ui va l e n t
dos e i n m o use i s i n di c at e d. 1-wa y A N OV A a n d D u n ne t t’ s M ul ti pl e C o m pa ri so n t e st wa s use d.

For the compound `Nc1nnc(CN[C@@H]2C[C@H]2c2ccc(OCc3ccccc3)cc2)o1` [ORY-2001], the Lymphocytes by setting is: (9 months Beagle dogs, 0.025 mg/kg p.o. gavage (equivalent mouse dose 0.15)) 2.10 ± 0.60 109/L; (9 months Beagle dogs, 0.075 mg/kg p.o. gavage (equivalent mouse dose 0.45)) 2.90 ± 0.30 109/L; (9 months Beagle dogs, 0.150 mg/kg p.o. gavage (equivalent mouse dose 0.90)) 2.75 ± 1.04 109/L; (28 d Beagle dogs, 0.025 mg/kg p.o. gavage (equivalent mouse dose 0.15)) 3.31 ± 0.41 109/L; (28 d Beagle dogs, 0.075 mg/kg p.o. gavage (equivalent mouse dose 0.45)) 2.88 ± 1.02 109/L; (28 d Beagle dogs, 0.225 mg/kg p.o. gavage (equivalent mouse dose 1.35)) 4.33 ± 1.08 109/L.
